Reference: PMC7206119, “RIP1 inhibition blocks inflammatory diseases but not tumor growth or metastases” (Cell Death and Differentiation, 2019)

What was measured:
Assay in all cases: biochemical
Design in all cases: Thermo Fisher SelectScreen kinase panel: Z'-LYTE and Adapta activity, LanthaScreen binding
NEK4 = NEK4 (Homo sapiens, UniProt P51957)
Outline: (§1)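 GNE684 profiled at 10 µM across 221 kinases with Z'-LYTE and Adapta activity and LanthaScreen binding formats. Also screened at 10 µM against 468 kinases in KINOMEscan scanMAX binding assay.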

MEKK2 = biological target: T1, MEKK2 (Homo sapiens, UniProt Q9Y2U5)
T1 construct: gene MAP3K2
Outline: as §1

Tpl2 = biological target: T2, Tpl2 (Homo sapiens, UniProt P41279)
T2 construct: gene MAP3K8
Outline: as §1

YSK1 = biological target: T3, YSK1 (Homo sapiens, UniProt O00506)
T3 construct: gene STK25
Outline: as §1

FGR = FGR (Homo sapiens, UniProt P09769)
Outline: as §1

FLT3 = FLT3 (Homo sapiens, UniProt P36888)
Outline: as §1

CaMKI = biological target: T4, CaMKI (Homo sapiens, UniProt Q14012)
T4 construct: gene CAMK1
Outline: as §1

LRRK2 = LRRK2 (Homo sapiens, UniProt Q5S007)
Outline: as §1

PI3K-A = biological target: T5, PI3K-A (Homo sapiens, UniProt P42336)
T5 construct: gene PIK3CA; p110alpha/p85alpha
Outline: as §1

DNA-PK = biological target: T6, DNA-PK (Homo sapiens, UniProt P78527)
T6 construct: gene PRKDC
Outline: as §1

MUSK = MUSK (Homo sapiens, UniProt O15146)
Outline: as §1

p38-beta = biological target: T7, p38-beta (Homo sapiens, UniProt Q15759)
T7 construct: gene MAPK11
Outline: as §1

HCK = HCK (Homo sapiens, UniProt P08631)
Outline: as §1

TYK2 = TYK2 (Homo sapiens, UniProt P29597)
Outline: as §1

Rse = biological target: T8, Rse (Homo sapiens, UniProt Q06418)
T8 construct: gene TYRO3
Outline: as §1

PhK_gamma1 = biological target: T9, PhK_gamma1 (Homo sapiens, UniProt Q16816)
T9 construct: gene PHKG1
Outline: as §1

LTK = LTK (Homo sapiens, UniProt P29376)
Outline: as §1

CamKII_alpha = biological target: T10, CamKII_alpha (Homo sapiens, UniProt Q9UQM7)
T10 construct: gene CAMK2A
Outline: as §1

TBK1 = TBK1 (Homo sapiens, UniProt Q9UHD2)
Outline: as §1

GRK5 = GRK5 (Homo sapiens, UniProt P34947)
Outline: as §1

WEE1 = WEE1 (Homo sapiens, UniProt P30291)
Outline: as §1

p38_alpha(direct) = biological target: T11, p38_alpha(direct) (Homo sapiens, UniProt Q16539)
T11 construct: gene MAPK14; direct
Outline: as §1

p70S6K = biological target: T12, p70S6K (Homo sapiens, UniProt P23443)
T12 construct: gene RPS6KB1
Outline: as §1

Chain of FLT3 (P36888 whole entry): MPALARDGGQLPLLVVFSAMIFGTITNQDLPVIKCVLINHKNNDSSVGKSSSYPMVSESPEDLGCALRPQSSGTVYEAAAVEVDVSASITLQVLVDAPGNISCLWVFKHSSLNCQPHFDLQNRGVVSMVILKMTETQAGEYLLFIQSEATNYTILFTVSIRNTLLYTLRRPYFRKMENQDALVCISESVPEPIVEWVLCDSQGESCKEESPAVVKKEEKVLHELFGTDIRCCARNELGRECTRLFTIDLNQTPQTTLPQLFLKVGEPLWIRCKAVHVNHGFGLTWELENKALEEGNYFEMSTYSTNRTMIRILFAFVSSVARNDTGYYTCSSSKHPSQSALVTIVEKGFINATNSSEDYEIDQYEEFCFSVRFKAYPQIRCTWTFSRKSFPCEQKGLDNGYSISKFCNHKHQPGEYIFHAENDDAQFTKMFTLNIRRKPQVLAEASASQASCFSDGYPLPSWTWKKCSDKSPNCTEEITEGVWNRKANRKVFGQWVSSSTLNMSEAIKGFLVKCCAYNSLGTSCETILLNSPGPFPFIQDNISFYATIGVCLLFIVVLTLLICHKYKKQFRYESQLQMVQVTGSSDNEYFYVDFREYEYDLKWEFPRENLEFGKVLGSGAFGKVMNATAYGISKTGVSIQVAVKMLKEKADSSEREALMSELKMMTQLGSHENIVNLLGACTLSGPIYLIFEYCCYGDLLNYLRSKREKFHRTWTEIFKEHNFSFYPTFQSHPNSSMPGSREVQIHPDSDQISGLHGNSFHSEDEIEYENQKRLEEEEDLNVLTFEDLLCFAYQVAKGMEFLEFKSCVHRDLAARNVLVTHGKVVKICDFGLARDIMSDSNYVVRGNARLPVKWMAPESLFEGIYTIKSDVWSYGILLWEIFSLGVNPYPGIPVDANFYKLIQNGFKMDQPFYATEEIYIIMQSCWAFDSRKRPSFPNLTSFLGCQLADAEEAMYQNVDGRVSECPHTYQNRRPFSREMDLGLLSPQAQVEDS
T6 sequence (P78527 whole entry): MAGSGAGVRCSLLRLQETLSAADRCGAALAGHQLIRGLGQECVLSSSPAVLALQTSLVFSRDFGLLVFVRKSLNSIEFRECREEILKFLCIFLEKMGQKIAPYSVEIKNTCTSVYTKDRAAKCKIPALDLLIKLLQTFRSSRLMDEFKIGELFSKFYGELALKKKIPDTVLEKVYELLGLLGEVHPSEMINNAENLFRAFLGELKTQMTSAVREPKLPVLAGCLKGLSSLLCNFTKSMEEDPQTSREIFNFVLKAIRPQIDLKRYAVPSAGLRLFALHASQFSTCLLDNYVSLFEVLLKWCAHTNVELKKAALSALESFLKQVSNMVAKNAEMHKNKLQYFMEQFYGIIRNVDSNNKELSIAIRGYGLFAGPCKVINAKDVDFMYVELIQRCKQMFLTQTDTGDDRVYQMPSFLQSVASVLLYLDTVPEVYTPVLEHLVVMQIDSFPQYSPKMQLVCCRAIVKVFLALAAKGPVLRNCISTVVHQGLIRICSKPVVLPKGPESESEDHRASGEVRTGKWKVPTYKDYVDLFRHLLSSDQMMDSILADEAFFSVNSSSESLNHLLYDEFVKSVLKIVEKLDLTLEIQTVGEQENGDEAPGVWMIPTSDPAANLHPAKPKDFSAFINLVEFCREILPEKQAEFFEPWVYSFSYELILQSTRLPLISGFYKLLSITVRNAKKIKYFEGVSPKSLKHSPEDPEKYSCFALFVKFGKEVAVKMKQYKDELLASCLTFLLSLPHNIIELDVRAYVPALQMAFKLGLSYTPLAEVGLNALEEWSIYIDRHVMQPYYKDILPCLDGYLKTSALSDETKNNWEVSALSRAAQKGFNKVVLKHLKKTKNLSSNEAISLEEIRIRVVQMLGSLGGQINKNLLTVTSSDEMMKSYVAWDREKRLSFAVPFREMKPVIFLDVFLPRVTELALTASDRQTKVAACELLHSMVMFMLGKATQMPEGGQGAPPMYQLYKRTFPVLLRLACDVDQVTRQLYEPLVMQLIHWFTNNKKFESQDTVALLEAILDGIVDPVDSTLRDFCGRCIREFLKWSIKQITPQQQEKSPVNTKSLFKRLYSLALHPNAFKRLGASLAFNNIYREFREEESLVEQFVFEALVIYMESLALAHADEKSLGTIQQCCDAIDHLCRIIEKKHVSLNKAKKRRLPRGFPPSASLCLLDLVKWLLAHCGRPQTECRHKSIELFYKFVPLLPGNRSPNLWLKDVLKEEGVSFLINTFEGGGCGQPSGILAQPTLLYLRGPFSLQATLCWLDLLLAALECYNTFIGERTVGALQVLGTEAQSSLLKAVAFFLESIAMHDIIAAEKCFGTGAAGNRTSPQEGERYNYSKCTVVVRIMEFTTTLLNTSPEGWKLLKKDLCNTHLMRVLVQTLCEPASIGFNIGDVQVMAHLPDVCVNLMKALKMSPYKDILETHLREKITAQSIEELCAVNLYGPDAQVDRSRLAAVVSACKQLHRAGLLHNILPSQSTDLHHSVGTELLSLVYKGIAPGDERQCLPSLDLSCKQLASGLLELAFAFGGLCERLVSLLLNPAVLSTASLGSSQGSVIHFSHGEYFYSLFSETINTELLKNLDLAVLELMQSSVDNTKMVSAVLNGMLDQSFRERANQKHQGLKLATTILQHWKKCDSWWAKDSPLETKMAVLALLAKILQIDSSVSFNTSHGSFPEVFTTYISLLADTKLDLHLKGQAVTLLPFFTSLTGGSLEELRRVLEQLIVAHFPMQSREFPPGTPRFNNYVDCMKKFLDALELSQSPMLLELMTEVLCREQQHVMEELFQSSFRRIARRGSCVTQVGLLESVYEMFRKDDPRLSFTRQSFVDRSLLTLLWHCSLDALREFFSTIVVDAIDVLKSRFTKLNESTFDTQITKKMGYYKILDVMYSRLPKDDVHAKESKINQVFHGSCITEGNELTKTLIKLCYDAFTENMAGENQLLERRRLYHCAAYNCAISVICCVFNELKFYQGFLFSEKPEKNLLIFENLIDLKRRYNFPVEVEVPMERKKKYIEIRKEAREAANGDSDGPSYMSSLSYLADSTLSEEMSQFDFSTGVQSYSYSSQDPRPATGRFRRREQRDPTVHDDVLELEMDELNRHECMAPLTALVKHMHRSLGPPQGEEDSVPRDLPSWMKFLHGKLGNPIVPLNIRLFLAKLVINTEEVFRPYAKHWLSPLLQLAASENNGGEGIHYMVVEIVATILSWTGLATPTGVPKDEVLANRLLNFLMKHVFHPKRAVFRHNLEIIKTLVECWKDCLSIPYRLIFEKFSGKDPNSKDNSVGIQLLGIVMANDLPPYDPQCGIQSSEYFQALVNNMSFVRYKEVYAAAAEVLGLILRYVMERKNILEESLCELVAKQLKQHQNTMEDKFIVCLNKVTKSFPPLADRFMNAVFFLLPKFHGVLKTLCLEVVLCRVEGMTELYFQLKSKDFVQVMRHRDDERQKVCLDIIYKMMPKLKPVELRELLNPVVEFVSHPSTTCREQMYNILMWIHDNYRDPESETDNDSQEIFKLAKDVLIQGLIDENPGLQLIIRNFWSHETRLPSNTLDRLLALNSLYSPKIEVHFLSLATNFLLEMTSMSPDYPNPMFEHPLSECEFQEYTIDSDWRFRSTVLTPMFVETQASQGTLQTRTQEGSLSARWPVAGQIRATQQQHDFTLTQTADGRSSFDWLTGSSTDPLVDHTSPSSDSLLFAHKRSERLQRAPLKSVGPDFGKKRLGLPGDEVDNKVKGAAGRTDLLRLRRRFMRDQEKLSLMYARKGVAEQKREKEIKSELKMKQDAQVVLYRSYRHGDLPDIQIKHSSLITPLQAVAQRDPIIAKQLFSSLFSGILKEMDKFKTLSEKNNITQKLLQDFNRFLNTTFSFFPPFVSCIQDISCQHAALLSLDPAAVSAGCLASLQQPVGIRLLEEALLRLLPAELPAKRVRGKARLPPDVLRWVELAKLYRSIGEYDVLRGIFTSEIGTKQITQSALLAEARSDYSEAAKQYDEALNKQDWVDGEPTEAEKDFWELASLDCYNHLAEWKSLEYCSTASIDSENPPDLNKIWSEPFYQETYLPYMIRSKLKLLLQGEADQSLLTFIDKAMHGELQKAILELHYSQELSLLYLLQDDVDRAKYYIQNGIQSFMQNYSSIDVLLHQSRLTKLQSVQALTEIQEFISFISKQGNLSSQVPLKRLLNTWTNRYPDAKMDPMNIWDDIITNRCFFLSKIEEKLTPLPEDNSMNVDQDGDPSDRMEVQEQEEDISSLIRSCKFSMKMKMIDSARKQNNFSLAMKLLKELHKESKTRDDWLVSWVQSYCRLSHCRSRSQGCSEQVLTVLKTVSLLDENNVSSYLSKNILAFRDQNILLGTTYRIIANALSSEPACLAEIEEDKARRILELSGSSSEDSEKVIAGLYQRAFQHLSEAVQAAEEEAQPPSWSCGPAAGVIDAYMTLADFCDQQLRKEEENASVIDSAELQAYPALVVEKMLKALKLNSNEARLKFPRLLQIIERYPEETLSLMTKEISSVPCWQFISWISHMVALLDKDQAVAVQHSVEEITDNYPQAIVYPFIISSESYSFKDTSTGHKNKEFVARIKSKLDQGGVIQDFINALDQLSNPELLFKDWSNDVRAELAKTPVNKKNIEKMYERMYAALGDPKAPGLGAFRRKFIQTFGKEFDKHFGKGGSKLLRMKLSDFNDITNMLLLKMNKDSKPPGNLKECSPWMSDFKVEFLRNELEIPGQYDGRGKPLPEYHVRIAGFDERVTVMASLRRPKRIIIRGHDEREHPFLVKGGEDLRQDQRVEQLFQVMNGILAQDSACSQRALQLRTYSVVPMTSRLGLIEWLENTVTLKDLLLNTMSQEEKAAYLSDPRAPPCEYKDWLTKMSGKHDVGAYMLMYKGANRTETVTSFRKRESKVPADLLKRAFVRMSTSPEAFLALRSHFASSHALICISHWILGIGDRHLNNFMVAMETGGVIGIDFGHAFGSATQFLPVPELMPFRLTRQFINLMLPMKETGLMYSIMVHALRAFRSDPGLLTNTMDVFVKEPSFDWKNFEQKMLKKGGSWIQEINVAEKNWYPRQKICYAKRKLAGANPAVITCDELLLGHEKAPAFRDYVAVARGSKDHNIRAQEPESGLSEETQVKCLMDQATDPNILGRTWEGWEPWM

In the case of `COc1cc2c(cn1)N(C)C(=O)[C@@H](NC(=O)c1nc3n(n1)[C@H](c1ccccc1)CC3)CC2` [GNE684, (S)-N-((S)-7-methoxy-1-methyl-2-oxo-2,3,4,5-tetrahydro-1H-pyrido[3,4-b]azepin-3-yl)-5-phenyl-6,7-dihydro-5H-pyrrolo[1,2-b][1,2,4]triazole-2-carboxamide], the inhibition at 10 µM (NEK4) is reported as 4.5%, the inhibition at 10 µM (MEKK2) is reported as 7% and the inhibition at 10 µM (Tpl2) is reported as 7%. It also gave an inhibition at 10 µM (YSK1) of 3.5%, an inhibition at 10 µM (FGR) of 8% and an inhibition at 10 µM (FLT3) of 10%. For the same compound, the inhibition at 10 µM (CaMKI) was -5.5%, the inhibition at 10 µM (LRRK2) was -19.5% and the inhibition at 10 µM (PI3K-A) was 16%. It also gave an inhibition at 10 µM (DNA-PK) of 4%, an inhibition at 10 µM (MUSK) of 14% and an inhibition at 10 µM (p38-beta) of 4.5%. It also gave an inhibition at 10 µM (HCK) of 5%, an inhibition at 10 µM (TYK2) of 3.5% and an inhibition at 10 µM (Rse) of 5%. It also gave an inhibition at 10 µM (PhK_gamma1) of 0%, an inhibition at 10 µM (LTK) of 7.5% and an inhibition at 10 µM (CamKII_alpha) of 6.5%. For the same compound, the inhibition at 10 µM (TBK1) was 1%, the inhibition at 10 µM (GRK5) was 4.5% and the inhibition at 10 µM (WEE1) was 0.5%. For the same compound, the inhibition at 10 µM (p38_alpha(direct)) was 3.5% and the inhibition at 10 µM (p70S6K) was 10%.
